The structures appear in SMILES notation. Records with an inconclusive call do not appear. Active and inactive are the calls of the source. No rule for the calls is given here.

This experiment deals with Mycobacterium tuberculosis non-replicating, growth inhibition. Briefly: growth inhibition of non-replicating M. tuberculosis (AID 488890).
Consider `COc1ccc(C(=O)Nc2ccccc2C(=O)N/N=C/c2ccccn2)cc1OC`, for which the IC50 is 24.7 µM (inactive).
With `Cc1ccc(CNCc2cc(Cl)ccc2O)cc1` the figure was 12.8 µM (inactive); with `CC1CCN(C(=O)COC(=O)CCc2c[nH]c3ccccc23)CC1`, 12.8 µM (inactive); with `CC(C)Oc1ccc(C(=O)CCN2CCCCC2)cc1`, 6.21 µM.
With `CN1C(c2ccccc2)CC(=NO)CC1c1ccccc1` (stereo not given) the figure was 11.3 µM (inactive); with `CCOC(=O)Cc1ccc(NCc2ccc(Cl)cc2)cc1`, 10.8 µM (inactive).
Next, `NC1CCN(c2c(F)cc3c(=O)c(C(=O)O)cn(C4CC4)c3c2Cl)C1` (stereo not given): 0.15 µM; `Cc1ccc(C)c(-c2nnc(NC(=O)C3=COCCO3)o2)c1`: 23.1 µM (inactive).
Regarding `Nc1ccc(Nc2ccccc2)cc1`, the IC50 was 6 µM.
With `CCCCOc1ccc(CSCCN)cc1Cl` the figure was 27.8 µM (inactive); with `Cc1cc(NC(=O)c2sccc2C)n(-c2nc3ccccc3[nH]2)n1`, 8.81 µM.
Next, `CCCOC(=O)c1ccc(NC(=O)C2C3C=CC(O3)C2C(=O)O)cc1` (stereo not given): 9.27 µM; `CCOC(=O)Nc1ccc2c(c1)N(C(=O)CCCl)c1ccccc1[S@]2=O`: 3.68 µM; `CCCCCOc1ccc(Br)cc1/C(C)=N/NC1=NCCN1`: 7.59 µM.
Next, `CCCc1cc(C(=O)Nc2ccccc2SC)no1`: 12.1 µM (inactive); `O=C(NC(=S)Nc1ccc(F)cc1)C1CCCCC1`: 0.71 µM; `Fc1cccc2sc(N3CCCC3)nc12`: 23.1 µM (inactive).
Turning to `CCOc1cc(/C=N/NC(=O)c2ccccn2)ccc1OC(=O)c1cccs1`, the IC50 was 5.55 µM.
Consider `O=C(N/N=C/c1ccc([N+](=O)[O-])o1)c1sc2ccccc2c1Cl`, for which the concentration for half-maximal inhibition (IC50) is 2.9 µM.
With `CCOC(=O)Cc1nc2cc(Cl)ccc2o1` the figure was 32.3 µM (inactive); with `CC(C)[C@@H]1CC[C@@H](C)C[C@H]1OC(=O)C[n+]1cc(-c2ccc(Cl)cc2)n2c1CCCCC2`, 2.18 µM.
With `CN=C1S/C(=C\c2ccc(OCC(=O)OC)c(OC)c2)C(=O)N1C` the figure was 16.5 µM (inactive); with `CCOc1ccccc1NC(=O)COn1nnc2ccc(Cl)cc21`, 10.5 µM (inactive).
Next, `O=S(=O)(CCN1CCN(c2ccccn2)CC1)c1ccc(Cl)cc1Cl`: 8.61 µM; `COc1ccc(OC(=O)c2cc3cc(Cl)ccc3oc2=O)cc1`: 10.1 µM (inactive).
For the compound `O=C1N/C(=N\c2ccccn2)SC1Cc1ccc(Cl)cc1` (stereo not given), the half-inhibitory concentration (IC50) is 3.91 µM.
Next, `O=C(N/N=C/c1ccc[nH]1)c1ccc2c(c1)OCO2`: 8.98 µM; `O=C(NNC(=O)C12CC3CC(CC(C3)C1)C2)c1ccccn1`: 6.79 µM.
With `c1ccc2[nH]c(NC3=NCCC3)nc2c1` the figure was 19.2 µM (inactive); with `CCOc1ccc(-c2nnc(NC(=O)c3ccc(OCC(C)C)c(OC)c3)o2)cc1`, 24.1 µM (inactive); with `CCOc1ccc(OCCSc2ccc(S(=O)(=O)N3CCN(C)CC3)cn2)cc1`, 15.5 µM (inactive).
With `O=C(Nc1ccccc1F)c1ccc(CSc2ccccc2)o1` the figure was 4.4 µM; with `c1ccc(-c2nc(NCCCn3ccnc3)c3ccccc3n2)cc1`, 17.8 µM (inactive); with `COc1ccccc1N1CCN(C(=O)c2ccc([N+](=O)[O-])s2)CC1`, 5.97 µM.
As for `c1ccc(-c2nnc(SCc3nnc(-c4cccs4)o3)o2)cc1`, the IC50 was 5.95 µM.
Next, `COc1n[nH]c(C(=O)Nc2cc(F)ccc2C)c1[N+](=O)[O-]`: 12.4 µM (inactive); `O=C(c1cc2ccccc2o1)c1nc2c(n1O)CCCCC2`: 12.8 µM (inactive).
`Cc1cc(NCc2ccccn2)n2ncc(-c3ccccc3)c2n1`: the IC50 is 1.93 µM.
Next, `O=C(Nc1cccc(S(=O)(=O)N2CCCCC2)c1)c1ccc([N+](=O)[O-])o1`: 4.07 µM; `CCOC(=O)CN1NC2(CCC(C)CC2)NC1=S` (stereo not given): 15.2 µM (inactive); `O=C(CNC(=O)c1ccccc1F)OCc1csc(-c2ccccc2)n1`: 15.2 µM (inactive).
Next, `COc1ccc(COC(=O)CCNC(=O)c2ccc(Cl)cc2)cc1`: 8.25 µM.
With `COC(=O)c1cc2c(ccc3ccccc32)oc1=O` the figure was 6.24 µM; with `C/C(=N\Nc1ccc(Cl)cc1)c1ccccn1`, 15.9 µM (inactive).
In the case of `O=C(OCC(=O)N1CCN(c2ccccc2)CC1)c1ccc2ccccc2n1`, the IC50 was 8.13 µM.
Next, `CCOc1ccc(C(=O)Nc2ccc(N3CCN(C)CC3)cc2)cc1Br`: 30.5 µM (inactive); `O=[N+]([O-])c1cc(Cl)cc(/C=N/Nc2nc3ccccc3s2)c1O`: 1.8 µM; `Cc1noc2ncnc(Sc3ccccc3Cl)c12`: 16.4 µM (inactive).
In the case of `O=[N+]([O-])c1ccc(-c2nc3ccc([N+](=O)[O-])cc3[nH]2)cc1`, the IC50 was 16 µM (inactive).
With `COc1cc2[nH]c(Cl)c([N+](=O)[O-])c2cc1OC` the figure was 14.1 µM (inactive).
With `O=C(CCN1CCCCCC1)c1ccccc1` the figure was 9.1 µM.
Next, `O=C(N/N=C/c1ccc[nH]1)c1ccc(Cl)cc1`: 3.88 µM; `O=C(Nc1ccc(Cl)cc1Cl)c1cccc(N2C(=O)C=CC2=O)c1`: 11.6 µM (inactive); `Cc1nc2ccccc2n1/N=C/c1ccc([N+](=O)[O-])s1`: 0.32 µM.
`CC(=O)Nc1ccc(NC(=O)c2cc([N+](=O)[O-])cc([N+](=O)[O-])c2)cc1`: the IC50 was 8.92 µM.
Next, `O=C(NCCC1=CCCCC1)c1ccc(F)cc1`: 1.36 µM.
Next, `Cc1ccc2c(c1)c1c(n2CC(O)CNC2CCCCC2)CCCC1` (stereo not given): 16.7 µM (inactive); `O=C(Nc1sc2c(c1C(=O)O)CCCCC2)c1ccccc1F`: 15.6 µM (inactive); `O=C(c1ccc(Cl)cc1)N1N=C(c2ccccn2)CC1(O)C(F)(F)F` (stereo not given): 5.51 µM.
Next, `CC1(C)CC(=O)c2cc(C(=O)NNc3ccccc3)c(=O)n(-c3ccccc3)c2C1`: 7.49 µM; `NC(=O)c1ccc(N=Cc2ccc([N+](=O)[O-])s2)cc1`: 11.8 µM (inactive).
As to `CN1/C(=C\C(=O)COC(=O)C2COc3ccccc3O2)C(C)(C)c2ccccc21` (stereo not given), the half-inhibitory concentration (IC50) is 5.79 µM.
Next, `O=C(c1cc2ccccc2o1)N1CCN(Cc2ccccc2)CC1`: 7.64 µM; `CCOC(=O)c1ccc(N=CC2=C(O)CC(C)(C)CC2=O)cc1`: 3.85 µM.
With `O=C(NC1CCOc2ccccc21)c1ccc(Cl)nc1` (stereo not given) the figure was 1.46 µM.
Next, `CCOc1ccc(OCc2ccc(C(=O)OCc3ccccn3)o2)cc1`: 8.49 µM; `O=C(N/N=C/c1cc(Br)ccc1O)c1ccccc1Cl`: 0.48 µM; `O=C(NNC(=O)c1ccccc1F)c1ccc(-c2ccc(Cl)cc2)o1`: 1.53 µM.
Consider `CCOC(=O)c1sc2nc(CSc3ccccc3)nc(NCCN(C)C)c2c1C`, for which the IC50 is 14.9 µM (inactive).
Next, `Cc1[nH]n2c(=O)c3c(nc2c1-c1ccccc1)CCCC3`: 13.6 µM (inactive).
With `COc1ccc(OCC(=O)Nc2ccc(N3CCN(C(=O)c4ccco4)CC3)cc2)cc1` the figure was 20.8 µM (inactive); with `O=C(N/N=C/c1cc([N+](=O)[O-])ccc1O)C1CCCCC1`, 1.97 µM.
Regarding `CCOc1ccc(CC(=O)N2N=C(C)CC2(O)C(F)(F)F)cc1` (stereo not given), the IC50 was 13.3 µM (inactive).
With `O=C(c1ccc(Cl)cc1)c1nnc(-c2ccncc2)o1` the figure was 3.32 µM; with `CCOC(=O)C1CCN(Cc2ccc(-c3ccccc3)cc2)CC1`, 44 µM (inactive); with `O=C(NCc1nnc(SC/C=C/c2ccccc2)o1)c1ccco1`, 4.25 µM.
Next, `O=C(Nc1nnc(-c2ccccc2Cl)o1)c1ccco1`: 6.7 µM; `O=C(O)c1ccccc1C(=O)NNc1ccc(Cl)cc1`: 4.09 µM; `CCOC(=O)c1ccc(NC(=O)NS(=O)(=O)c2ccc(C)cc2)cc1`: 3.31 µM.
With `O=[N+]([O-])c1ccc(CSc2nnc(-c3cccnc3)o2)cc1` the figure was 0.81 µM.
On to `Cc1ccc(OCC(=O)OCc2c(C)noc2C)cc1C`, for which the IC50 was 11.7 µM (inactive).
With `Oc1ccccc1Nc1nc(NCC2CCCO2)c2ccccc2n1` (stereo not given), the IC50 is 30.7 µM (inactive).
With `Cc1ccn2c(Nc3ccccc3)c(-c3ccccn3)nc2c1` the figure was 10.4 µM (inactive); with `Cc1occc1C(=O)N/N=C/c1ccc[nH]1`, 11.9 µM (inactive).
Turning to `Cc1ccc2[nH]c3c(c2c1)CCCC3NCCO` (stereo not given), the IC50 was 13.7 µM (inactive).
With `O=C(NNc1nc2ccccc2s1)c1ccc(F)cc1` the figure was 43.8 µM (inactive); with `NC(N)=N/N=C/c1cn(-c2ccccc2)nc1-c1cccs1`, 6.07 µM; with `CCOC(=O)c1cc(COc2cc(Cl)cc(Cl)c2)on1`, 0.59 µM.
With `COc1ccc2c([N+](=O)[O-])c(N3CCCC3)[nH]c2c1` the figure was 36 µM (inactive); with `COc1ccc2[nH]c3c(C)c4ccncc4c(C)c3c2c1`, 0.59 µM; with `O=C(CNC(=O)c1ccco1)OCc1ccc(C(=O)Oc2ccccc2)cc1`, 8.17 µM.
`C/C(=N/NC(=O)c1ccco1)c1ccc(Br)s1`: the IC50 is 23 µM (inactive).
With `CCC1(O)CC(c2ccccc2)=NN1C(=O)c1ccccc1F` (stereo not given) the figure was 3.45 µM; with `O=[N+]([O-])c1ccc(N2CCCCCC2)c2nonc12`, 21.7 µM (inactive).
With `Cc1ccc(C(=O)N/N=C\c2ccc(-c3ccc(Cl)cc3)o2)cn1` the figure was 7.02 µM; with `COC(=O)CCC(=O)Nc1sc(Cc2ccccc2)c(C)c1C(N)=O`, 13.6 µM (inactive).
Take `CC(C)CNc1nc(=S)nc(N(C)C)[nH]1`: the IC50 is 11.5 µM (inactive).
With `CCOC(=O)COn1c(-c2cccc(Cl)c2)nc2ccc([N+](=O)[O-])cc21` the figure was 19.6 µM (inactive).
Take `O=C(COc1ccccc1)Nc1nnc(-c2ccc3c(c2)CCCC3)o1`: the IC50 is 0.9 µM.
With `COc1ccc(OC(=O)CCc2c[nH]c3ccccc23)cc1` the figure was 3.37 µM.

These data come from PubChem BioAssay AID488890 (Southern Research Specialized Biocontainment Screening …, 2010).
